Data published in US7858609B2, “Solid ganaxolone formulations and methods for the making and use thereof” (Marinus Pharmaceuticals, priority 2005, dated 2010).

Assay: Solubility of ganaxolone using water soluble beta cyclodextrins
Type: physicochemical
Conditions: using water soluble beta cyclodextrins (beta-sulfobutyl-cyclodextrin, 2-hydroxypropylbetacyclodextrin)
Excerpt: Ganaxolone formulations suitable for intramuscular, subcutaneous, or intravenous injection may comprise physiologically acceptable sterile aqueous or non-aqueous solutions, dispersions, suspensions or emulsions, and sterile powders for reconstitution into sterile injectable solutions or dispersions. Examples of suitable aqueous and non-aqueous carriers, diluents, solvents, or vehicles including water, ethanol, polyols (propylene glycol, polyethylene-glycol, glycerol, cremophor and the like), suitable mixtures thereof, vegetable oils (such as olive oil) and injectable organic esters such as ethyl oleate. Additionally, Ganaxolone can be dissolved at concentrations of >1 mg/ml using water soluble beta cyclodextrins (e.g. beta-sulfobutyl-cyclodextrin and 2-hydroxypropylbetacyclodextrin. Proper fluidity can be maintained, for example, by the use of a coating such as lecithin, by the maintenance of the required particle size in the case of dispersions, and by the use of surfactants. Ganaxolone formulations suitable for subcutaneous injection may also contain additives such as preserving, wetting, emulsifying, and dispensing agents. Prevention of the growth of microorganisms can be ensured by various antibacterial and antifungal agents, such as parabens, benzoic acid, benzyl alcohol, chlorobutanol, phenol, sorbic acid, and the like. […]

**Q.** For `CC(=O)[C@H]1CC[C@H]2[C@@H]3CC[C@H]4C[C@](C)(O)CC[C@]4(C)[C@H]3CC[C@]12C` [Ganaxolone, 3α-hydroxy-3β-methyl-5α-pregnan-20-one], which dissolved concentration is on record?
**A.** The dissolved concentration was greater than 1 mg/mL.
